Measurements taken from patent publication US20260198493A1, “HYDRAZIDE COMPOUND AND AGRICULTURAL/HORTICULTURAL FUNGICIDE” (Nippon Soda Co., Ltd., priority 2022, published 2026).

Experiments:
Botrytis cinerea [1] = format: cell-based; conditions: 120 h, 25 ppm by volume, Vogel medium, 20° C., five days, dark, read-out: growth inhibition ratio
Botrytis cinerea [2] = experiment: Control test of cucumber gray mold (sprayed young cucumber seedlings); format: in vivo; conditions: 96 h, four days after inoculation; for pest or weed control at 25 ppm: 25 ppm by mass spray; for pest or weed control at 125 ppm: 125 ppm by mass spray
Description: Then, the drug liquid was sprayed onto young cucumber seedlings cultivated in a nursery pot (variety “Jihai”-based, cotyledon stage), and then air-dried. […] They were left still in a moist room at 20° C. Four days after inoculation, leaves of the young cucumber seedlings were visually observed, and the control value was calculated from the lesion area ratio in accordance with the following equation. [formula]

Venturia inaequalis = experiment: Control test of apple scab disease (sprayed young apple seedlings); format: in vivo; conditions: 125 ppm by mass spray, 12 to 14 days after inoculation
Description: [formula] […] Then, the drug liquid was sprayed onto young apple seedlings cultivated in a nursery pot (variety “Orin”, three-to four-leaf stage), and then air-dried. Thereafter, conidiospores of fungi causing apple scab disease (Venturia inaequalis) were inoculated thereon (treated area). As a control, the conidiospores were inoculated in a similar manner to the above on young apple seedlings unsprayed with the drug liquid (untreated area). They were left still at 20° C. in a moist room with light and dark cycles repeated every 12 hours. 12 Days to 14 days after inoculation, leaves of young apple seedlings were visually observed, and the control value was calculated from the lesion area ratio in accordance with the equation used in the control test of cucumber gray mold.

[3] = tested on: Erysiphe graminis f.sp.tritici; experiment: Control test of wheat powdery mildew disease (sprayed young wheat seedlings); format: in vivo; conditions: Blumeria graminis, 144 h, 125 ppm by mass spray, six days after inoculation
Source text: [formula] […] Then, the drug liquid was sprayed onto young wheat seedlings cultivated in a nursery pot (variety “Chihoku”, one-to two-leaf stage), and then air-dried. Thereafter, conidiospores of fungi causing wheat powdery mildew disease (Erysiphe graminis f.sp.tritici) were sprinkled on the young wheat seedlings to inoculate them (treated area). As a control, the conidiospores of fungi causing wheat powdery mildew disease (Erysiphe graminis f.sp.tritici) were sprinkled on young wheat seedlings unsprayed with the drug liquid (untreated area). They were left still in a greenhouse at 20° C. Six days after inoculation, leaves of young wheat seedlings were visually observed, and the lesion area ratio was determined to calculate the control value in a similar manner to the previous test.

Colletotrichum acutatum = experiment: Fungicidal effect test against fungi causing apple anthracnose; conditions: 96 h, read-out: growth inhibition ratio
Glomerella cingulata = experiment: Fungicidal effect test against fungi causing grape ripe rot disease; conditions: Colletotrichum gloeosporioides, 72 h, read-out: growth inhibition ratio

CC(=O)N(Cc1ccc(C)cc1C)NC(=O)c1cc(C)nnc1Oc1cccc(C2CC2)c1F [b-5, N′-acetyl-3-(3-cyclopropyl-2-fluorophenoxy)-N′-(2,4-dimethylbenzyl)-6-methylpyridazine-4-carbohydrazide]
≥ 75%: inhibition of growth at 25 ppm (Botrytis cinerea [1]) | pest or weed control at 25 ppm (Botrytis cinerea [2]) | pest or weed control at 125 ppm (Botrytis cinerea [2]) | pest or weed control at 125 ppm (Venturia inaequalis) | pest or weed control at 125 ppm [3] | inhibition of growth at 25 ppm (Colletotrichum acutatum) | inhibition of growth at 25 ppm (Glomerella cingulata)

CC(=O)N(Cc1ccc(C)cc1C)NC(=O)c1cc(C)ncc1Oc1cccc(C2CC2)c1F [b-9, N′-acetyl-5-(3-cyclopropyl-2-fluorophenoxy)-N′-(2,4-dimethylbenzyl)-2-methylisonicotinohydrazide]
≥ 75%: inhibition of growth at 25 ppm (Botrytis cinerea [1]) | pest or weed control at 25 ppm (Botrytis cinerea [2]) | pest or weed control at 125 ppm (Botrytis cinerea [2]) | pest or weed control at 125 ppm (Venturia inaequalis) | pest or weed control at 125 ppm [3] | inhibition of growth at 25 ppm (Colletotrichum acutatum) | inhibition of growth at 25 ppm (Glomerella cingulata)

Cc1ccc(CN(NC(=O)c2cc(C)nnc2Oc2cccc(C3CC3)c2F)C(=O)C(C)C)c(C)c1 [b-18]
≥ 75%: inhibition of growth at 25 ppm (Botrytis cinerea [1]) | pest or weed control at 125 ppm (Botrytis cinerea [2]) | pest or weed control at 125 ppm (Venturia inaequalis) | pest or weed control at 125 ppm [3] | inhibition of growth at 25 ppm (Colletotrichum acutatum) | inhibition of growth at 25 ppm (Glomerella cingulata)

CCCC(=O)N(Cc1ccc(C)cc1C)NC(=O)c1cc(C)nnc1Oc1cccc(C2CC2)c1F [b-20]
≥ 75%: inhibition of growth at 25 ppm (Botrytis cinerea [1]) | pest or weed control at 125 ppm (Botrytis cinerea [2]) | pest or weed control at 125 ppm (Venturia inaequalis) | pest or weed control at 125 ppm [3] | inhibition of growth at 25 ppm (Colletotrichum acutatum) | inhibition of growth at 25 ppm (Glomerella cingulata)

CCOC(=O)N(Cc1ccc(C)cc1C)NC(=O)c1cc(C)nnc1Oc1cccc(C2CC2)c1F [b-21]
≥ 75%: inhibition of growth at 25 ppm (Botrytis cinerea [1]) | pest or weed control at 25 ppm (Botrytis cinerea [2]) | pest or weed control at 125 ppm (Botrytis cinerea [2]) | pest or weed control at 125 ppm (Venturia inaequalis) | pest or weed control at 125 ppm [3] | inhibition of growth at 25 ppm (Colletotrichum acutatum) | inhibition of growth at 25 ppm (Glomerella cingulata)

Cc1ccc(CN(NC(=O)c2cc(C)nnc2Oc2cccc(C3CC3)c2F)C(=O)C2CC2)c(C)c1 [b-25]
≥ 75%: inhibition of growth at 25 ppm (Botrytis cinerea [1]) | pest or weed control at 25 ppm (Botrytis cinerea [2]) | pest or weed control at 125 ppm (Botrytis cinerea [2]) | pest or weed control at 125 ppm (Venturia inaequalis) | pest or weed control at 125 ppm [3] | inhibition of growth at 25 ppm (Colletotrichum acutatum) | inhibition of growth at 25 ppm (Glomerella cingulata)

COC(=O)N(Cc1ccc(C)c(C)c1)NC(=O)c1cc(C)nnc1Oc1cccc(C2CC2)c1F [b-29]
≥ 75%: inhibition of growth at 25 ppm (Botrytis cinerea [1]) | pest or weed control at 25 ppm (Botrytis cinerea [2]) | pest or weed control at 125 ppm (Botrytis cinerea [2]) | pest or weed control at 125 ppm (Venturia inaequalis) | pest or weed control at 125 ppm [3] | inhibition of growth at 25 ppm (Colletotrichum acutatum) | inhibition of growth at 25 ppm (Glomerella cingulata)

COCOc1ccc(CN(NC(=O)c2cc(C)nnc2Oc2cccc(C3CC3)c2F)C(=O)OC)c(C)c1 [b-30]
≥ 75%: inhibition of growth at 25 ppm (Botrytis cinerea [1]) | pest or weed control at 25 ppm (Botrytis cinerea [2]) | pest or weed control at 125 ppm (Botrytis cinerea [2]) | pest or weed control at 125 ppm (Venturia inaequalis) | pest or weed control at 125 ppm [3] | inhibition of growth at 25 ppm (Colletotrichum acutatum) | inhibition of growth at 25 ppm (Glomerella cingulata)

COC(=O)N(Cc1ccc(OC)cc1C)NC(=O)c1cc(C)nnc1Oc1cccc(C2CC2)c1F [b-44]
≥ 75%: inhibition of growth at 25 ppm (Botrytis cinerea [1]) | pest or weed control at 25 ppm (Botrytis cinerea [2]) | pest or weed control at 125 ppm (Botrytis cinerea [2]) | pest or weed control at 125 ppm (Venturia inaequalis) | pest or weed control at 125 ppm [3] | inhibition of growth at 25 ppm (Colletotrichum acutatum) | inhibition of growth at 25 ppm (Glomerella cingulata)

COC(=O)N(Cc1ccc(C)cc1C)NC(=O)c1cc(C)nnc1Oc1cccc(OC)c1F [b-52]
≥ 75%: inhibition of growth at 25 ppm (Botrytis cinerea [1]) | pest or weed control at 25 ppm (Botrytis cinerea [2]) | pest or weed control at 125 ppm (Botrytis cinerea [2]) | pest or weed control at 125 ppm (Venturia inaequalis) | pest or weed control at 125 ppm [3] | inhibition of growth at 25 ppm (Colletotrichum acutatum) | inhibition of growth at 25 ppm (Glomerella cingulata)

COC(=O)N(Cc1ccc(Cl)cc1Cl)NC(=O)c1cc(C)nnc1Oc1cccc(C2CC2)c1F [b-57]
≥ 75%: inhibition of growth at 25 ppm (Botrytis cinerea [1]) | pest or weed control at 125 ppm (Botrytis cinerea [2]) | pest or weed control at 125 ppm (Venturia inaequalis) | pest or weed control at 125 ppm [3] | inhibition of growth at 25 ppm (Colletotrichum acutatum) | inhibition of growth at 25 ppm (Glomerella cingulata)

COC(=O)N(CCc1ccc(Cl)cc1Cl)NC(=O)c1cc(C)nnc1Oc1cccc(C2CC2)c1F [b-65]
≥ 75%: pest or weed control at 125 ppm (Venturia inaequalis) | pest or weed control at 125 ppm [3] | inhibition of growth at 25 ppm (Colletotrichum acutatum) | inhibition of growth at 25 ppm (Glomerella cingulata)

CC(=S)N(Cc1ccc(C)cc1C)NC(=O)c1cc(C)nnc1Oc1cccc(C2CC2)c1F [b-66, 3-(3-Cyclopropyl-2-fluorophenoxy)-N′-(2,4-dimethylbenzyl)-N′-ethanethioyl-6-methylpyridazine-4-carbohydrazide]
≥ 75%: inhibition of growth at 25 ppm (Botrytis cinerea [1]) | pest or weed control at 25 ppm (Botrytis cinerea [2]) | pest or weed control at 125 ppm (Botrytis cinerea [2]) | pest or weed control at 125 ppm (Venturia inaequalis) | pest or weed control at 125 ppm [3] | inhibition of growth at 25 ppm (Colletotrichum acutatum) | inhibition of growth at 25 ppm (Glomerella cingulata)

COC(=O)N(Cc1ccc(C)cc1C)NC(=O)c1cc(C)nnc1Oc1cccc(Br)c1Cl [b-68]
≥ 75%: inhibition of growth at 25 ppm (Botrytis cinerea [1]) | pest or weed control at 125 ppm (Botrytis cinerea [2]) | pest or weed control at 125 ppm (Venturia inaequalis) | pest or weed control at 125 ppm [3] | inhibition of growth at 25 ppm (Colletotrichum acutatum) | inhibition of growth at 25 ppm (Glomerella cingulata)

COC(=O)N(Cc1ccc(OC)cc1OC)NC(=O)c1cc(C)ncc1Oc1cccc(C2CC2)c1F [b-85]
≥ 75%: inhibition of growth at 25 ppm (Botrytis cinerea [1]) | pest or weed control at 25 ppm (Botrytis cinerea [2]) | pest or weed control at 125 ppm (Botrytis cinerea [2]) | pest or weed control at 125 ppm (Venturia inaequalis) | pest or weed control at 125 ppm [3] | inhibition of growth at 25 ppm (Glomerella cingulata)

COC(=O)N(Cc1ccc(OC)cc1OC)NC(=O)c1nc(C)ncc1Oc1cccc(C2CC2)c1F [b-86]
≥ 75%: inhibition of growth at 25 ppm (Botrytis cinerea [1]) | pest or weed control at 25 ppm (Botrytis cinerea [2]) | pest or weed control at 125 ppm (Botrytis cinerea [2]) | pest or weed control at 125 ppm (Venturia inaequalis) | pest or weed control at 125 ppm [3] | inhibition of growth at 25 ppm (Glomerella cingulata)

COC(=O)N(Cc1ccc(OC)cc1)NC(=O)c1cc(C)nnc1Oc1cccc(C2CC2)c1F [b-100]
≥ 75%: inhibition of growth at 25 ppm (Botrytis cinerea [1]) | pest or weed control at 125 ppm (Venturia inaequalis) | pest or weed control at 125 ppm [3] | inhibition of growth at 25 ppm (Colletotrichum acutatum) | inhibition of growth at 25 ppm (Glomerella cingulata)

COC(=O)N(Cc1ccccc1)NC(=O)c1cc(C)nnc1Oc1cccc(C2CC2)c1F [b-102]
≥ 75%: inhibition of growth at 25 ppm (Botrytis cinerea [1]) | pest or weed control at 125 ppm (Venturia inaequalis) | pest or weed control at 125 ppm [3] | inhibition of growth at 25 ppm (Colletotrichum acutatum) | inhibition of growth at 25 ppm (Glomerella cingulata)

COC(=O)N(Cc1ccc(OC)cc1C)NC(=O)c1cc(C)ncc1Oc1cccc(C2CC2)c1F [b-104]
≥ 75%: inhibition of growth at 25 ppm (Botrytis cinerea [1]) | pest or weed control at 25 ppm (Botrytis cinerea [2]) | pest or weed control at 125 ppm (Botrytis cinerea [2]) | pest or weed control at 125 ppm (Venturia inaequalis) | pest or weed control at 125 ppm [3] | inhibition of growth at 25 ppm (Colletotrichum acutatum)

COC(=O)N(Cc1ccc2c(c1)OCO2)NC(=O)c1cc(C)nnc1Oc1cccc(C2CC2)c1F [b-110]
≥ 75%: inhibition of growth at 25 ppm (Botrytis cinerea [1]) | pest or weed control at 125 ppm (Venturia inaequalis) | pest or weed control at 125 ppm [3] | inhibition of growth at 25 ppm (Colletotrichum acutatum) | inhibition of growth at 25 ppm (Glomerella cingulata)

COC(=O)N(Cc1ccc(C)cc1C)NC(=O)c1cc(C)nnc1Oc1cccc(OC)c1 [b-123]
≥ 75%: inhibition of growth at 25 ppm (Botrytis cinerea [1]) | pest or weed control at 125 ppm (Venturia inaequalis) | pest or weed control at 125 ppm [3] | inhibition of growth at 25 ppm (Colletotrichum acutatum) | inhibition of growth at 25 ppm (Glomerella cingulata)

COC(=O)N(Cc1ccc(C)cc1C)NC(=O)c1cc(C)nnc1Oc1cccc(F)c1Cl [b-180]
≥ 75%: inhibition of growth at 25 ppm (Botrytis cinerea [1]) | pest or weed control at 125 ppm (Venturia inaequalis) | pest or weed control at 125 ppm [3]
